Data set [1] can be described thus: Inactivation kinetics by HPLC of high potency APIs with chemical agents. The class given is physicochemical. Conditions: chemical agents and analytical methods appropriate for each API; different exposure time; HPLC (FIG. 4). As for the experimental part:
The inactivation kinetics by HPLC of high potency APIs bortezomib, decitabine, sunitinib malate, temozolomide and zoledronic acid was evaluated using chemical agents and analytical methods appropriate for each API.

Data set [2] is described as follows: Inactivation kinetics by HPLC of imatinib mesylate liquid waste with hypochlorous acid. The class given is physicochemical. Conditions: 20 mg/mL aqueous solution, 1% hypochlorous acid aqueous solution as inactivation chemical agent. As for the experimental part: The inactivation kinetics by HPLC of a liquid waste comprising 20 mg/mL imatinib mesylate aqueous solution was evaluated using a 1% hypochlorous acid aqueous solution as inactivation chemical agent, as illustrated in FIGS. 2 and 3. It is possible to verify that 10 minutes of exposure were enough for complete inactivation of imatinib mesylate by hypochlorous acid.
The equipment used was a High-Performance Liquid Chromatography-HPLC, Agilent Tech. Model 1260.
Solution A: Prepare a mixture of methanol and acetonitrile (300:200) and homogenize.
Mobile Phase: transfer 1.65 g of sodium dihydrogen phosphate dihydrate to a beaker. Dissolve in 550 mL of purified water and adjust pH to 8.0±0.2 using trimethylamine and homogenize. Add 450 mL of solution A, homogenize and filter using a membrane of 0.45 μm.
Chromatographic Conditions:
Column: Develosil ODS HG-5 (4.6×150 mm, 5 μm)—Phenomenex
Column temperature: 30° C.
Chromatographic time: 50 minutes
Retention time for imatinib: about 18 minutes
Sample temperature: 5° C.

Where a name gives a salt, the structure may show the parent alone.

Turning to `CC(C)C[C@H](NC(=O)[C@H](Cc1ccccc1)NC(=O)c1cnccn1)B(O)O` [bortezomib], the “inactivation by chemical agent action” value in data set [1] is reported as “completely inactivated”.

For the compound `Cc1ccc(NC(=O)c2ccc(CN3CCN(C)CC3)cc2)cc1Nc1nccc(-c2cccnc2)n1` [imatinib mesylate], in data set [2], the “exposure time enough for complete inactivation” value is no more than 10 min.

As for `CCN(CC)CCNC(=O)c1c(C)[nH]c(/C=C2\C(=O)Nc3ccc(F)cc32)c1C` [sunitinib malate], the “inactivation by chemical agent action” value in data set [1] is reported as “completely inactivated”.

These data come from US11591243B2, “Industrial process and system for the inactivation of liquid waste” (CRISTALIA PRODUTOS QUIMICOS FARMACEUTICOS LTDA., priority 2018, dated 2023).
